Laboratory results taken from patent publication US10214508B2, “Nitrogen-containing heterocyclic compound” (Takeda Pharmaceutical Company Limited, priority 2014, dated 2019).

These compounds were tested against T1, human M1 receptor (hCHRM1) (Homo sapiens, UniProt P11229) (assay: Measurement of M1 receptor positive allosteric modulator (M1PAM) activity, calcium fluorescence (FLIPRtetra)). Conditions: 10 μM test compound with acetylcholine at EC20 (final 0.6-0.8 nM); 100% = acetylcholine 1 μM, 0% = DMSO; CHO-K1 cells expressing hCHRM1.
T1 construct: expressed in transfected cells
T1 sequence (P11229 1-460): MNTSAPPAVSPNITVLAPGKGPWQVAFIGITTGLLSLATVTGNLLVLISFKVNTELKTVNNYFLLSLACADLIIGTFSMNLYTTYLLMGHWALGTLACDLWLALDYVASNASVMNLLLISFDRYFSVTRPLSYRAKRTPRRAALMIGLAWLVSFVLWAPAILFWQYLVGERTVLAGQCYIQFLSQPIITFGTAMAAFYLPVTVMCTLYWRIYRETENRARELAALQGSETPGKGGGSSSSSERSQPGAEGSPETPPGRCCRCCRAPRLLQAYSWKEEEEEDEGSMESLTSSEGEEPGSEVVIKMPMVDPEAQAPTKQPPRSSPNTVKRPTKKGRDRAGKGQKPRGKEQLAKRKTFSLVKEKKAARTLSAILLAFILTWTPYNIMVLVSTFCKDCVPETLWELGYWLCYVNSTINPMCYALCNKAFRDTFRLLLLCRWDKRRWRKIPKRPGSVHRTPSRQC
Assay type: cell-based
Summary of the method: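 CHO-K1 cells stably expressing hM1 were Fluo-4-loaded; compound added with acetylcholine at EC20 (0.6-0.8 nM final), calcium fluorescence read 1 min on FLIPRtetra. Activity scaled between DMSO (0%) and 1 μM acetylcholine (100%); inflection point of concentration–response reported as IP.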

Row | activity (%) at 10 μM [%] | SMILES
1 | 99 | COc1nc(C(=O)N[C@H]2CCCC[C@@H]2O)cc(Cc2ccc(-c3ccn(C)n3)cc2)c1C [Example 88, N-((1S,2S)-2-hydroxycyclohexyl)-6-methoxy-5-methyl-4-(4-(1-methyl-1H-pyrazol-3-yl)benzyl)pyridine-2-carboxamide]
2 | 101 | COc1nc(C(=O)N[C@H]2COCC[C@@H]2O)cc(Cc2ccc(-c3ccn(C)n3)cc2)c1C [Example 89, 1,5-anhydro-2,4-dideoxy-2-(((6-methoxy-5-methyl-4-(4-(1-methyl-1H-pyrazol-3-yl)benzyl)pyridin-2-yl)carbonyl)amino)-L-threo-pentitol]
3 | 106 | COc1nc(C(=O)N[C@H]2CCC[C@@H]2O)cc(Cc2ccc(-c3ccn(C)n3)cc2)c1C [Example 90, N-((1S,2S)-2-hydroxycyclopentyl)-6-methoxy-5-methyl-4-(4-(1-methyl-1H-pyrazol-3-yl)benzyl)pyridine-2-carboxamide]
4 | 98 | COc1nc(C(=O)N[C@H]2CCCC[C@@H]2O)cc(Cc2ccc(-n3cccn3)cc2)c1C [Example 91, N-((1S,2S)-2-hydroxycyclohexyl)-6-methoxy-5-methyl-4-(4-(1H-pyrazol-1-yl)benzyl)pyridine-2-carboxamide]
5 | 99 | COc1nc(C(=O)N[C@H]2COCC[C@@H]2O)cc(Cc2ccc(-n3cccn3)cc2)c1C [Example 92, 1,5-anhydro-2,4-dideoxy-2-(((6-methoxy-5-methyl-4-(4-(1H-pyrazol-1-yl)benzyl)pyridin-2-yl)carbonyl)amino)-L-threo-pentitol]
6 | 105 | COc1nc(C(=O)N[C@H]2CCC[C@@H]2O)cc(Cc2ccc(-n3cccn3)cc2)c1C [Example 93, N-((1S,2S)-2-hydroxycyclopentyl)-6-methoxy-5-methyl-4-(4-(1H-pyrazol-1-yl)benzyl)pyridine-2-carboxamide]
7 | 101 | O=C(N[C@H]1CCCC[C@@H]1O)c1cc(Cc2ccc(-n3cccn3)cc2)c(OC(F)F)cn1 [Example 94, 5-(difluoromethoxy)-N-((1S,2S)-2-hydroxycyclohexyl)-4-(4-(1H-pyrazol-1-yl)benzyl)pyridine-2-carboxamide]
8 | 99 | O=C(N[C@H]1COCC[C@@H]1O)c1cc(Cc2ccc(-n3cccn3)cc2)c(OC(F)F)cn1 [Example 95, 1,5-anhydro-2,4-dideoxy-2-(((5-(difluoromethoxy)-4-(4-(1H-pyrazol-1-yl)benzyl)pyridin-2-yl)carbonyl)amino)-L-threo-pentitol]
9 | 112 | Cc1nc(C(=O)N[C@H]2COCC[C@@H]2O)cc(Cc2ccc(-c3ccn(C)n3)cc2)c1Cl [Example 96, 1,5-anhydro-2-(((5-chloro-6-methyl-4-(4-(1-methyl-1H-pyrazol-3-yl)benzyl)pyridin-2-yl)carbonyl)amino)-2,4-dideoxy-L-threo-pentitol]
10 | 93 | Cc1nc(C(=O)N[C@H]2CCC[C@@H]2O)cc(Cc2ccc(-c3ccn(C)n3)cc2)c1Cl [Example 97, 5-chloro-N-((1S,2S)-2-hydroxycyclopentyl)-6-methyl-4-(4-(1-methyl-1H-pyrazol-3-yl)benzyl)pyridine-2-carboxamide]
11 | 94 | Cc1nc(C(=O)N[C@H]2CCCC[C@@H]2O)cc(Cc2ccc(-n3cccn3)cc2)c1Cl [Example 98, 5-chloro-N-((1S,2S)-2-hydroxycyclohexyl)-6-methyl-4-(4-(1H-pyrazol-1-yl)benzyl)pyridine-2-carboxamide]
12 | 96 | Cc1nc(C(=O)N[C@H]2COCC[C@@H]2O)cc(Cc2ccc(-n3cccn3)cc2)c1Cl [Example 99, 1,5-anhydro-2-(((5-chloro-6-methyl-4-(4-(1H-pyrazol-1-yl)benzyl)pyridin-2-yl)carbonyl)amino)-2,4-dideoxy-L-threo-pentitol]
13 | 97 | Cc1nc(C(=O)N[C@H]2CCC[C@@H]2O)cc(Cc2ccc(-n3cccn3)cc2)c1Cl [Example 100, 5-chloro-N-((1S,2S)-2-hydroxycyclopentyl)-6-methyl-4-(4-(1H-pyrazol-1-yl)benzyl)pyridine-2-carboxamide]
14 | 105 | Cc1nc(C(=O)N[C@H]2COCC[C@@H]2O)cc(Cc2ccc(C#N)cc2)c1Cl [Example 101, 1,5-anhydro-2-(((5-chloro-4-(4-cyanobenzyl)-6-methylpyridin-2-yl)carbonyl)amino)-2,4-dideoxy-L-threo-pentitol]
15 | 104 | COc1ccc(Cc2cc(C(=O)N[C@H]3COCC[C@@H]3O)nc(C)c2Cl)cc1 [Example 102, 1,5-anhydro-2-(((5-chloro-4-(4-methoxybenzyl)-6-methylpyridin-2-yl)carbonyl)amino)-2,4-dideoxy-L-threo-pentitol]
16 | 109 | Cc1nc(C(=O)N[C@H]2CCCC[C@@H]2O)cc(Cc2ccc(Cl)nc2)c1Cl [Example 103, 5-chloro-4-((6-chloropyridin-3-yl)methyl)-N-((1S,2S)-2-hydroxycyclohexyl)-6-methylpyridine-2-carboxamide]
17 | 102 | Cc1nc(C(=O)N[C@H]2CCCC[C@@H]2O)cc(Cc2ccc(C#N)nc2)c1Cl [Example 104, 5-chloro-4-((6-cyanopyridin-3-yl)methyl)-N-((1S,2S)-2-hydroxycyclohexyl)-6-methylpyridine-2-carboxamide]
18 | 100 | COc1ccc(Cc2cc(C(=O)N[C@H]3CCCC[C@@H]3O)nc(C)c2Cl)cn1 [Example 105, 5-chloro-N-((1S,2S)-2-hydroxycyclohexyl)-4-((6-methoxypyridin-3-yl)methyl)-6-methylpyridine-2-carboxamide]
19 | 104 | COc1ccc(Cc2cc(C(=O)N[C@H]3COCC[C@@H]3O)nc(C)c2Cl)cn1 [Example 106, 1,5-anhydro-2-(((5-chloro-4-((6-methoxypyridin-3-yl)methyl)-6-methylpyridin-2-yl)carbonyl)amino)-2,4-dideoxy-L-threo-pentitol]
20 | 101 | Cc1nc(C(=O)N[C@H]2CCCC[C@@H]2O)cc(Cc2ccc(-c3ccn(C)n3)nc2)c1Cl [Example 107, 5-chloro-N-((1S,2S)-2-hydroxycyclohexyl)-6-methyl-4-((6-(1-methyl-1H-pyrazol-3-yl)pyridin-3-yl)methyl)pyridine-2-carboxamide]
21 | 114 | CCn1cc(-c2ccc(Cc3cc(C(=O)N[C@H]4CCCC[C@@H]4O)nc(C)c3Cl)cn2)cn1 [Example 108, 5-chloro-4-((6-(1-ethyl-1H-pyrazol-4-yl)pyridin-3-yl)methyl)-N-((1S,2S)-2-hydroxycyclohexyl)-6-methylpyridine-2-carboxamide]
22 | 95 | Cc1nn(C)cc1-c1ccc(Cc2cc(C(=O)N[C@H]3CCCC[C@@H]3O)nc(C)c2Cl)cn1 [Example 109, 5-chloro-4-((6-(1,3-dimethyl-1H-pyrazol-4-yl)pyridin-3-yl)methyl)-N-((1S,2S)-2-hydroxycyclohexyl)-6-methylpyridine-2-carboxamide]
23 | 95 | Cc1ccc(Cc2cc(C(=O)N[C@H]3CCCC[C@@H]3O)nc(C)c2Cl)cn1 [Example 110, 5-chloro-N-((1S,2S)-2-hydroxycyclohexyl)-6-methyl-4-((6-methylpyridin-3-yl)methyl)pyridine-2-carboxamide]
24 | 90 | Cc1ccc(Cc2cc(C(=O)N[C@H]3COCC[C@@H]3O)nc(C)c2Cl)cn1 [Example 111, 1,5-anhydro-2-(((5-chloro-6-methyl-4-((6-methylpyridin-3-yl)methyl)pyridin-2-yl)carbonyl)amino)-2,4-dideoxy-L-threo-pentitol]
25 | 91 | Cc1nc(C(=O)N[C@H]2CCCC[C@@H]2O)cc(Cc2ccc(-n3cccn3)cc2)c1C#N [Example 112, 5-cyano-N-((1S,2S)-2-hydroxycyclohexyl)-6-methyl-4-(4-(1H-pyrazol-1-yl)benzyl)pyridine-2-carboxamide]
26 | 94 | Cc1nc(C(=O)N[C@H]2COCC[C@@H]2O)cc(Cc2ccc(-n3cccn3)cc2)c1C#N [Example 113, 1,5-anhydro-2-(((5-cyano-6-methyl-4-(4-(1H-pyrazol-1-yl)benzyl)pyridin-2-yl)carbonyl)amino)-2,4-dideoxy-L-threo-pentitol]
27 | 94 | Cc1nc(C(=O)N[C@H]2CCCC[C@@H]2O)cc(Cc2ccc(-c3ccn(C)n3)cc2)c1C#N [Example 114, 5-cyano-N-((1S,2S)-2-hydroxycyclohexyl)-6-methyl-4-(4-(1-methyl-1H-pyrazol-3-yl)benzyl)pyridine-2-carboxamide]
28 | 111 | Cc1nc(C(=O)N[C@H]2COCC[C@@H]2O)cc(Cc2ccc(-c3ccn(C)n3)cc2)c1C#N [Example 115, 1,5-anhydro-2-(((5-cyano-6-methyl-4-(4-(1-methyl-1H-pyrazol-3-yl)benzyl)pyridin-2-yl)carbonyl)amino)-2,4-dideoxy-L-threo-pentitol]
29 | 104 | Cc1nc(C(=O)N[C@H]2CCC[C@@H]2O)cc(Cc2ccc(Cl)nc2)c1C [Example 116, 4-((6-chloropyridin-3-yl)methyl)-N-((1S,2S)-2-hydroxycyclopentyl)-5,6-dimethylpyridine-2-carboxamide]
